pIC50: −log10 of the molar value.
Assays:
Type in all cases: cell-based, human
[1] = test system: HT-29 cells; test: Inhibition test for sphere-forming ability of cancer cells in the presence of BSA (Test Example 2), HT-29; conditions: in the presence of 5% BSA, cultured 4 days
Description: (§1) Human colorectal cancer-derived HCT-116 cells, human colon-adenocarcinoma-derived HT-29 cells, and human pharyngeal cancer-derived FaDu cells were available from American Type Culture Collection (ATCC). HCT-116 cells and HT-29 cells were cultured at 37° C. under 5% CO2 using the McCoy's 5a medium containing 10% fetal bovine serum (FBS) and 1% penicillin/streptomycin, and FaDu cells were cultured at 37° C. under 5% CO2 using the MEM medium containing 10% FBS, 1% non-essential amino acid, 1% sodium pyruvate, 5% bovine serum albumin (BSA), and 1% penicillin/streptomycin. HCT-116 cells, HT-29 cells, and FaDu cells were seeded in a 384 Well Black Clear Bottom Ultra-Low Attachment Microplate (Corning Cat. No. 3827) in an amount of 350-800 cells/well using the DMEM/F12 medium containing 2% B27 supplement (GIBCO), 20 ng/mL epidermal growth factor (EGF) (peprotech), 10 ng/mL basic fibroblast growth factor (bFGF) (peprotech), 5 μg/mL insulin (Sigma), 5% bovine serum albumin (BSA), and 1% penicillin/streptomycin. Each test compound was added into each well to adjust the final concentration of DMSO to 0.1%, and the cells were cultured for 4 days. The number of viable cells in each well was then measured with CellTiter-Glo® Luminescent Cell Viability Assay (Promega) to calculate the concentration of each test compound for 50% inhibition of cell proliferation (Sphere IC50 value; μmol/L).
(§2) The experiment of Test Example 2 was performed for each compound of each Example.
(§3) The concentration of each test compound for 50% inhibition of cell proliferation (Sphere IC50 value; μmol/L) is shown in the following Table.

[2] = test system: FaDu cells; test: Inhibition test for sphere-forming ability of cancer cells in the presence of BSA (Test Example 2), FaDu; conditions: in the presence of 5% BSA, cultured 4 days
Description: as §1, §2, §3

[3] = test system: HT-29 cells; test: Inhibition test for sphere-forming ability of cancer cells (Test Example 1), HT-29; conditions: concentration for 50% inhibition of cell proliferation, read-out: IC50 (μmol/L) HT-29 (Sphere IC50 value)
Procedure, shortened: (§4)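 HCT-116, HT-29 and FaDu cells seeded at 350-800 cells/well on ultra-low attachment plates in serum-free DMEM/F12 with B27, 20 ng/mL EGF, 10 ng/mL bFGF and 5 μg/mL insulin. Compound given at 0.1% DMSO for 4 days; viable cells measured by CellTiter-Glo to give Sphere IC50 (μmol/L).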

[4] = test system: HCT-116 cells; test: Inhibition test for sphere-forming ability of cancer cells (Test Example 1), HCT-116; conditions: for pIC50: HCT-116 cells, concentration for 50% inhibition of cell proliferation, read-out: IC50 (μmol/L) HCT-116 (Sphere IC50 value); for inhibitory effect on the sphere-forming ability of cancer cells: Test Example 1, summary in words, cell line not given (HCT-116, HT-29, FaDu tested)
Procedure, shortened: as §4

[5] = test system: HCT-116 cells; test: Inhibition test for sphere-forming ability of cancer cells in the presence of BSA (Test Example 2), HCT-116; conditions: for pIC50: HCT-116 cells, in the presence of 5% BSA, cultured 4 days; for inhibitory effect on the sphere-forming ability of cancer cells: Test Example 2, in the presence of 5% BSA, summary in words, cell line not given (HCT-116, HT-29, FaDu tested)
Description: as §1, §2, §3

[6] = test system: FaDu cells; test: Inhibition test for sphere-forming ability of cancer cells (Test Example 1), FaDu; conditions: concentration for 50% inhibition of cell proliferation, read-out: IC50 (μmol/L) FaDu (Sphere IC50 value)
Procedure, shortened: as §4

| pIC50 [1] | pIC50 [2] | pIC50 [3] | pIC50 [4] | pIC50 [5] | pIC50 [6] | pIC50 ([1]; Homo sapiens, 96 h) | pIC50 ([2]; Homo sapiens, 96 h) | pIC50 ([3]; Homo sapiens) | pIC50 ([4]; Homo sapiens) | pIC50 ([5]; Homo sapiens, HCT-116, 96 h) | pIC50 ([6]; Homo sapiens) | SMILES | inhibitory effect on the sphere-forming ability of cancer cells [4] | inhibitory effect on the sphere-forming ability of cancer cells [5] |
| --- | --- | --- | --- | --- | --- | --- | --- | --- | --- | --- | --- | --- | --- | --- |
| 6.20 | 6.47 | 6.21 | 6.21 | 5.79 | 6.15 |  |  |  |  |  |  | COc1ccc(C(=O)Nc2cn(Cc3cccc(F)c3)cn2)cc1OC [Example 145] |  |  |
| 5.25 | 5.36 | 5.33 | 5.24 | < 5.00 | 5.24 |  |  |  |  |  |  | COc1ccc(C(=O)Nc2cn(Cc3ccccc3F)cn2)cc1OC [Example 144] |  |  |
| < 5.00 | 5.11 | 5.45 | 6.16 | < 5.00 | 5.21 |  |  |  |  |  |  | COc1ccc(C(=O)Nc2cn(Cc3c(F)cccc3F)cn2)cc1OC [Example 150] |  |  |
|  |  |  |  |  |  | 6.19 | 6.26 | 6.28 | 6.20 | 5.31 | 6.07 | COc1ccc(C(=O)Nc2cn(Cc3cccc(Cl)c3)cn2)cc1OC [Example 141, N-[1-(3-chlorobenzyl)-1H-imidazol-4-yl]-3,4-dimethoxybenzamide] |  |  |
| 6.09 | 6.26 | 6.13 | 6.19 | 5.22 | 6.10 |  |  |  |  |  |  | COc1ccc(C(=O)Nc2cn(Cc3ccc(F)cc3)cn2)cc1OC [Example 146] |  |  |
|  |  |  |  |  |  | 6.43 | 7.15 | 7.30 | 6.51 | 6.20 | 7.22 | CC(=O)Nc1ccc(/C=C/C(=O)Nc2cn(Cc3cccc(C(F)(F)F)c3)cn2)cc1 [Example 8, (2E)-3-[4-(acetylamino)phenyl]-N-{1-[3-(trifluoromethyl)benzyl]-1H-imidazol-4-yl}prop-2-enamide] | particularly potent inhibitory effect | particularly potent inhibitory effect |
|  |  |  |  |  |  | 6.24 | 7.15 | 7.22 | 7.05 | 6.20 | 7.05 | COc1ccc(/C=C/C(=O)Nc2cn(Cc3cccc(C(F)(F)F)c3)cn2)cc1OCCO [Example 34, (2E)-3-[3-(2-hydroxyethoxy)-4-methoxyphenyl]-N-{1[3-(trifluoromethyl)benzyl]-1H-imidazol-4-yl}prop-2-enamide] | particularly potent inhibitory effect | particularly potent inhibitory effect |
|  |  |  |  |  |  | 7.22 | 7.40 | 7.30 | 7.22 | 6.44 | 7.30 | COc1ccc(C(=O)Nc2cn(Cc3cc(F)c(F)c(F)c3)cn2)cc1OC [Example 236, 3,4-dimethoxy-N-[1-(3,4,5-trifluorobenzyl)-1H-imidazol-4-yl]benzamide] | particularly potent inhibitory effect | particularly potent inhibitory effect |
| 5.19 | 5.23 | 6.00 | 5.17 | < 5.00 | 5.22 |  |  |  |  |  |  | CNc1ccc(C(=O)Nc2cn(Cc3cccc(Cl)c3)cn2)cn1 [Example 225] |  |  |
| 5.24 | 5.28 | 6.15 | 6.11 | 5.04 | 6.15 |  |  |  |  |  |  | Cc1cccc(NC(=O)c2cn(Cc3cccc(Cl)c3)cn2)n1 [Example 258] |  |  |
|  |  |  |  |  |  | 6.27 | 7.22 | 7.15 | 7.10 | 6.14 | 7.10 | N#Cc1ccc(/C=C/C(=O)Nc2cn(Cc3cccc(Cl)c3)cn2)cc1OCCO [Example 35, (2E)-N-[1-(3-chlorobenzyl)-1H-imidazol-4-yl]-3-[4-cyano-3-(2-hydroxyethoxy)phenyl]prop-2-enamide] | particularly potent inhibitory effect |  |
| 6.28 | 6.32 | 6.34 | 6.21 | 6.07 | 6.23 |  |  |  |  |  |  | O=C(Nc1ccncn1)c1cn(Cc2cccc(Cl)c2)cn1 [Example 261] |  |  |
| 5.22 | 5.35 | 6.10 | 6.10 | 5.13 | 6.15 |  |  |  |  |  |  | Cc1csc(NC(=O)c2cn(Cc3cccc(Cl)c3)cn2)n1 [Example 257] |  |  |
| 6.23 | 6.38 | 6.41 | 6.27 | 5.29 | 6.26 |  |  |  |  |  |  | COc1ccc(C(=O)Nc2cn(Cc3cc(F)c(F)c(F)c3F)cn2)cc1OC [Example 156] |  |  |
| 5.31 |  | 6.12 | 5.06 | < 5.00 |  |  |  |  |  |  |  | O=C(Nc1cn(Cc2cccc(C(F)(F)F)c2)cn1)c1cncnc1 [Example 180] |  |  |
|  |  |  |  |  |  | 5.23 |  | 6.03 | 5.22 | < 5.00 |  | CC(=O)Nc1ccc(/C=C/C(=O)Nc2cn(Cc3cccc(C(F)(F)F)c3)cn2)nc1 [Example 230] |  |  |
|  |  |  |  |  |  | 6.28 |  | 7.15 | 6.25 | 6.15 |  | O=C(/C=C/c1cccnc1)Nc1cn(Cc2cc(F)c(F)c(F)c2)cn1 [Example 231] | particularly potent inhibitory effect |  |
| 7.00 |  | 7.30 | 7.10 | 6.25 |  |  |  |  |  |  |  | O=C(Nc1cn(Cc2cccc(C(F)(F)F)c2)cn1)c1ccc2cnccc2c1 [Example 186] | particularly potent inhibitory effect | particularly potent inhibitory effect |
| 5.48 |  | 6.72 | 6.11 | 5.10 |  |  |  |  |  |  |  | O=C(Nc1cn(Cc2cccc(C(F)(F)F)c2)cn1)c1cnc2ccccc2c1 [Example 181] |  |  |
| 5.24 |  | 5.33 | 5.54 | 5.22 |  |  |  |  |  |  |  | O=C(Nc1cn(Cc2cccc(C(F)(F)F)c2)cn1)c1ccncn1 [Example 179] |  |  |
| 6.28 |  | 7.05 | 6.51 | 6.16 |  |  |  |  |  |  |  | O=C(Nc1cn(Cc2cccc(Cl)c2)cn1)c1ccc2cnccc2c1 [Example 191] | particularly potent inhibitory effect |  |
| 6.21 |  | 7.22 | 7.15 | 6.22 |  |  |  |  |  |  |  | O=C(Nc1cn(Cc2cccc(C(F)(F)F)c2)cn1)c1ccc2cnccc2n1 [Example 193] | particularly potent inhibitory effect |  |
| 7.22 |  | 7.22 | 7.22 | 6.57 |  |  |  |  |  |  |  | O=C(Nc1cn(Cc2cc(F)c(F)c(F)c2)cn1)c1ccc2cnccc2c1 [Example 190] | particularly potent inhibitory effect |  |

| SMILES | pIC50 [1] | pIC50 [2] | pIC50 [3] | pIC50 [4] | pIC50 [5] | pIC50 [6] | pIC50 ([1]; Homo sapiens, 96 h) | pIC50 ([2]; Homo sapiens, 96 h) | pIC50 ([3]; Homo sapiens) | pIC50 ([4]; Homo sapiens) | pIC50 ([5]; Homo sapiens, HCT-116, 96 h) | pIC50 ([6]; Homo sapiens) | inhibitory effect on the sphere-forming ability of cancer cells [4] | inhibitory effect on the sphere-forming ability of cancer cells [5] |
| --- | --- | --- | --- | --- | --- | --- | --- | --- | --- | --- | --- | --- | --- | --- |
| O=C(/C=C/c1ccc(NCC(F)(F)F)nc1)Nc1cn(Cc2cccc(Cl)c2)cn1 [Example 15] | 7.22 | 7.22 | 7.22 | > 8.00 | 7.10 | 7.15 |  |  |  |  |  |  | particularly potent inhibitory effect | particularly potent inhibitory effect |
| O=C(Nc1ccc2c(O)cccc2c1)c1cn(Cc2cccc(Cl)c2)cn1 [Example 256] | 5.18 | 5.36 | 5.14 | 5.30 | 5.21 | 6.19 |  |  |  |  |  |  |  |  |
| COc1ccc(NC(=O)c2cn(Cc3cccc(Cl)c3)cn2)cc1OC [Example 262] | 6.14 |  | 6.22 | 6.08 | 5.22 |  |  |  |  |  |  |  |  |  |
